In patent US7538112B2, “HIV integrase inhibitors” (Merck & Co., Inc., priority 2004, dated 2009):

Tested on: viruses containing mutations in the integrase gene (T66I/S153Y, N155S, and F121Y)
Assay: Sensitivity of viruses containing integrase mutations associated with resistance to other integrase inhibitors
Type: cell-based, HIV
Excerpt: In preclinical laboratory experiments, it has been possible to select viruses resistant to integrase inhibitors in structural classes other than those embraced by the present invention, such as diketo acids, naphthyridine carboxamides, and dihydropyrimidine carboxamides. Mutations in the integrase gene that confer resistance (defined herein as greater than or equal to a 10-fold loss of sensitivity) to such compounds include T66I/S153Y, N155S, and F121Y. Certain compounds of the present invention have less than a 10-fold loss in sensitivity against viruses containing these and other mutations associated with resistance to other integrase inhibitors, and thus can be effective inhibitors of such viruses. Compounds of the present invention which are effective against such viruses include, for example, the compounds of Examples 37, 50, 56, 62, 69, 86, 87, 88, 151, 153, 159-A, 159-B, 166, 189, 193, and 205.

Row | SMILES | effective against viruses with integrase resistance mutations
1 | CCN1CC(CO)n2c(c(O)c3c(=O)n(Cc4ccc(F)cc4)nc(C)c32)C1=O (racemic) [Example 56, 8-Ethyl-2-(4-fluorobenzyl)-10-hydroxy-4-methyl-6-(hydroxymethyl)-7,8-dihydropyrazino[1′,2′:1,5]pyrrolo[2,3-d]pyridazine-1,9(2H,6H)-dione] | effective
2 | CCN1CC(C)n2c(c(O)c3c(=O)n(Cc4ccc(F)c(Cl)c4)nc(N(CC)S(C)(=O)=O)c32)C1=O (racemic) [Example 159-B, N-[2-(3-Chloro-4-fluorobenzyl)-10-hydroxy-8-ethyl-6-methyl-1,9-dioxo-1,2,6,7,8,9-hexahydropyrazino[1′,2′:1,5]pyrrolo[2,3-d]pyridazin-4-yl]-N-ethylmethanesulfonamide] | effective
3 | Cc1nn(Cc2ccc(F)cc2)c(=O)c2c(O)c3n(c12)C(C)CN(C)C3=O (stereo not shown) [Example 37, 2-(4-Fluorobenzyl)-10-hydroxy-4,6,8-trimethyl-7,8-dihydropyrazino[1′,2′:1,5]-pyrrolo[2,3-d]pyridazine-1,9(2H,6H)-dione] | effective
4 | Cc1nn(Cc2ccc(F)cc2)c(=O)c2c(O)c3n(c12)[C@@H](C)CN(C(C)C)C3=O [Example 50, 6(S)-2-(4-Fluorobenzyl)-10-hydroxy-8-isopropyl-4,6-dimethyl-7,8-dihydropyrazino[1′,2′:1,5]pyrrolo[2,3-d]pyridazine-1,9(2H,6H)-dione] | effective
5 | CCN1C[C@H](C)n2c(c(O)c3c(=O)n(Cc4ccc(F)c(Cl)c4)nc(C(=O)NC)c32)C1=O [Example 62, 6(S)-2-(3-Chloro-4-fluorobenzyl)-8-ethyl-10-hydroxy-N,6-dimethyl-1,9-dioxo-1,2,6,7,8,9-hexahydropyrazino[1′,2′:1,5]pyrrolo[2,3-d]pyridazine-4-carboxamide] | effective
6 | CCNC(=O)c1nn(Cc2ccc(F)c(Cl)c2)c(=O)c2c(O)c3n(c12)CCN(C)C3=O [Example 69, 2-(3-Chloro-4-fluorobenzyl)-N-ethyl-10-hydroxy-8-methyl-1,9-dioxo-1,2,6,7,8,9-hexahydropyrazino[1′,2′:1,5]pyrrolo[2,3-d]pyridazine-4-carboxamide] | effective
7 | CCNC(=O)c1nn(Cc2ccc(F)c(Cl)c2)c(=O)c2c(O)c3n(c12)[C@@H](C)CN(C(C)C)C3=O [Example 86, 6(S)-2-(3-Chloro-4-fluorobenzyl)-10-hydroxy-8-isopropyl-N-ethyl-6-methyl-1,9-dioxo-1,2,6,7,8,9-hexahydropyrazino[1′,2′:1,5]pyrrolo[2,3-d]pyridazine-4-carboxamide] | effective
8 | CCNC(=O)c1nn(Cc2ccc(F)cc2)c(=O)c2c(O)c3n(c12)[C@@H](C)CN(C(C)C)C3=O [Example 87, 6(S)-2-(4-Fluorobenzyl)-10-hydroxy-8-isopropyl-N-ethyl-6-methyl-1,9-dioxo-1,2,6,7,8,9-hexahydropyrazino[1′,2′:1,5]pyrrolo[2,3-d]pyridazine-4-carboxamide] | effective
9 | CC(C)N1C[C@H](C)n2c(c(O)c3c(=O)n(Cc4ccc(F)c(Cl)c4)nc(C(=O)N(C)C)c32)C1=O [Example 88, 6(S)-2-(3-Chloro-4-fluorobenzyl)-10-hydroxy-8-isopropyl-N,N,6-trimethyl-1,9-dioxo-1,2,6,7,8,9-hexahydropyrazino[1′,2′:1,5]pyrrolo[2,3-d]pyridazine-4-carboxamide] | effective
10 | CCN1C[C@H](C)n2c(c(O)c3c(=O)n(Cc4ccc(F)c(Cl)c4)nc(N(C)S(C)(=O)=O)c32)C1=O [Example 151, N-[(6S)-2-(3-Chloro-4-fluorobenzyl)-10-hydroxy-8-ethyl-6-methyl-1,9-dioxo-1,2,6,7,8,9-hexahydropyrazino[1′,2′:1,5]pyrrolo[2,3-d]pyridazin-4-yl]-N-methylmethanesulfonamide] | effective
11 | CC(C)N1C[C@H](C)n2c(c(O)c3c(=O)n(Cc4ccc(F)c(Cl)c4)nc(N(C)S(C)(=O)=O)c32)C1=O [Example 153, N-[(6S)-2-(3-Chloro-4-fluorobenzyl)-10-hydroxy-8-isopropyl-6-methyl-1,9-dioxo-1,2,6,7,8,9-hexahydropyrazino[1′,2′:1,5]pyrrolo[2,3-d]pyridazin-4-yl]-N-methylmethanesulfonamide] | effective
12 | CC(C)N1C[C@H](C)n2c(c(O)c3c(=O)n(Cc4ccc(F)cc4)nc(N(C)S(C)(=O)=O)c32)C1=O [Example 159-A, N-[(6S)-2-(4-Fluorobenzyl)-10-hydroxy-8-isopropyl-6-methyl-1,9-dioxo-1,2,6,7,8,9-hexahydropyrazino[1′,2′:1,5]pyrrolo[2,3-d]pyridazin-4-yl]-N-methylmethanesulfonamide] | effective
13 | CCN1C[C@H](C)n2c(c(O)c3c(=O)n(Cc4ccc(F)c(Cl)c4)nc(S(=O)(=O)CC)c32)C1=O [Example 166, 6(S)-2-(3-Chloro-4-fluorobenzyl)-8-ethyl-10-hydroxy-4-(ethylsulfonyl)-6-methyl-7,8-dihydropyrazino[1′,2′:1,5]pyrrolo[2,3-d]pyridazine-1,9(2H,6H)-dione] | effective
14 | CCN1C[C@H](C)n2c(c(O)c3c(=O)n(Cc4ccc(F)c(Cl)c4)ncc32)C1=O [Example 189, 6(S)-2-(3-Chloro-4-fluorobenzyl)-10-hydroxy-8-ethyl-6-methyl-7,8-dihydropyrazino[1′,2′:1,5]pyrrolo[2,3-d]pyridazine-1,9(2H,6H)-dione] | effective
15 | CC(C)N1C[C@H](C)n2c(c(O)c3c(=O)n(Cc4ccc(F)cc4)ncc32)C1=O [Example 193, 6(S)-2-(4-Fluorobenzyl)-10-hydroxy-8-isopropyl-6-methyl-7,8-dihydropyrazino[1′,2′:1,5]pyrrolo[2,3-d]pyridazine-1,9(2H,6H)-dione] | effective
16 | CCN1CC(CO)n2c(c(O)c3c(=O)n(Cc4ccc(F)cc4)ncc32)C1=O (stereo not shown) [Example 205, 2-(4-Fluorobenzyl)-10-hydroxy-8-ethyl-6-hydroxymethyl-7,8-dihydropyrazino[1′,2′:1,5]pyrrolo[2,3-d]pyridazine-1,9(2H,6H)-dione] | effective
